Assay [1] deals with T1, STAT3 binding to EGFR (Mus musculus, UniProt P42227).
T1 construct: expressed in transfected cells; host or cells: HEK293 stably co-expressing HA-STAT3 and FLAG-STAT3; EGFR endogenous; stimulated with 100 ng/ml EGF
Briefly: co-immunoprecipitation of EGFR and P-STAT3 with HA-STAT3 after EGF stimulation. The assay is classed as cell-based, human. The settings on record: HA-STAT3/FLAG-STAT3/HEK293 cells stimulated with EGF.
Method: For EGF stimulation group, HEK-293/FLAG-STAT3/HASTAT3 cells were treated by 100 ng/ml EGF for 30 minutes before making cell lysate. Protein A or G agarose (EMD Millipore, Billerica, Mass., USA) was washed twice with PBS and restore to 50% slurry with PBS. 500 μg of lysate were pre-cleared by mixture of protein A and protein G-agarose for 1 h at 4° C. and then remove protein A and G-agarose by centrifuge at 1300 rpm for 3 minutes. And then 500 μg of lysate was immunoprecipitated with 50 ng of HA antibody overnight at 4° C. on shaker and then capture the immunocomplex by adding 100 μl Protein A and G agarose/sepharose bead slurry for 1 hour at 4° C. Samples were washed five times with lysis buffer and then boiled in 5×SDS-PAGE sample buffer and run on SDS-PAGE gel. Protein was transferred to nitrocellulose membrane and then blotted as described above for HA, FLAG, pSTAT3, EGFR, and STAT3.
Therefore, it was determined if the intracellular reciprocal binding of 2 full-length STAT3 proteins is inhibited. To this end, an assay was developed to measure directly STAT3-STAT3 dimerization in intact cells by cloning HA-tagged STAT3 and FLAG-tagged STAT3, generating HEK293 cells that stably co-express HA-STAT3 and FLAG-STAT3 and using these cells for coimmunoprecipitation and co-localization. […]

Assay [2] addresses dimerization of FLAG-STAT3 and HA-STAT3 (Mus musculus, UniProt P42227). Briefly: co-localization of FLAG-STAT3 and HA-STAT3 by immunofluorescence. The conditions noted are these: HEK293 cells; 1, 2 or 4 hours. In kind it is cell-based, human. The method, then: HEK-293/FLAG-Stat3/HA-Stat3 cells were cultured (4000 cells per well) with G418 400 ug/ml in 8 well chamber slide. The cells were treated with S3I-1757 or S3I-1756 for 1 hour, 2 hours, or 4 hours. The cells were then rinsed with phosphate buffered saline (PBS), fixed with ice-cold methanol for 15 minutes, washed 3 times in PBS, permeabilized with 0.2% Triton X-100 for 15 minutes, and further washed 3-4 times with PBS. Cells were then blocked in 1% bovine serum albumin (BSA) for 30 min and incubated with anti-HA (Santa Cruz, Santa Cruz, Calif., USA) or anti-FLAG (Sigma, St. Louis, Mo., USA) primary antibody at 1:100 dilution at 4° C. overnight. Subsequently, cells were rinsed 4-5 times in PBS, incubated with Alexa fluor secondary antibody (Invitrogen, Carlsbad, Calif., USA) for 1 hour at room temperature in the dark. Cells were then washed 5 times with PBS, covered with cover slides with […] mounting medium containing DAPI (Vector Lab, Inc., Burlingame, Calif.), and examined immediately under Zeiss Upright Fluorescence Microscope (Zeiss, Thornwood, N.Y., USA).
HASTAT3/FLAG-STAT3/HEK 293 cells were treated with vehicle, S3I-1757 or S3I-1756 and the cells were processed for immunofluorescence staining for FLAG-STAT3 and HA-STAT3 and analyzed by confocal microscopy.

Sequence of dimerization of FLAG-STAT3 and HA-STAT3 (P42227 whole entry): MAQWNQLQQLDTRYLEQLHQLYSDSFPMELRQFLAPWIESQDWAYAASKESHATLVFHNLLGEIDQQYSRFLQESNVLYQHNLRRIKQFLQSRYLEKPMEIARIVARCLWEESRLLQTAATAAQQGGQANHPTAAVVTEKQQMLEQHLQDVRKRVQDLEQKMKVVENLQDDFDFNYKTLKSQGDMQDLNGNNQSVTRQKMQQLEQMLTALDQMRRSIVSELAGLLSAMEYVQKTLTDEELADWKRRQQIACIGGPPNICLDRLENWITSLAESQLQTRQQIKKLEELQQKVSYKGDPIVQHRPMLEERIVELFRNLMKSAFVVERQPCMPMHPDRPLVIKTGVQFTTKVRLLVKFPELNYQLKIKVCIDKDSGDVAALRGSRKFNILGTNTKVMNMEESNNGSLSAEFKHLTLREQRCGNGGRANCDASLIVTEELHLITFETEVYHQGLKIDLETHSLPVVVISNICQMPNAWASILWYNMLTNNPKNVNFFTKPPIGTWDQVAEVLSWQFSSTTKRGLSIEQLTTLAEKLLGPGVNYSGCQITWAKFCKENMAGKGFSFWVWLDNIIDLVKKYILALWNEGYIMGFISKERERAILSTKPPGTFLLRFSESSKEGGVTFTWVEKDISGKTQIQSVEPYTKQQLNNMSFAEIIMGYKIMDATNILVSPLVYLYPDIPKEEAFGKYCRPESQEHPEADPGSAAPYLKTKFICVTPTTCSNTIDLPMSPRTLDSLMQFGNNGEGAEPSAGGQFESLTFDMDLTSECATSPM
T1 sequence (P42227 whole entry): as above

Regarding `O=C(O)c1cc(N(Cc2ccc(C3CCCCC3)cc2)C(=O)c2ccc(Oc3ccccc3)cc2)ccc1O` [Compound 20g, 5-(N-(4-Cyclohexylbenzyl)-4-phenoxybenzamido)-2-hydroxybenzoic acid], the “EGFR and P-STAT3 co-immunoprecipitated with HA-STAT3” value in assay [1] is “inhibited these interactions”. Besides, the “co-localization of FLAG-STAT3 and HA-STAT3 (yellow color)” value in assay [2] was “progressively less yellow color over time”.

For the origin of these results see patent US10954258B2, “STAT3 dimerization inhibitors” (H. LEE MOFFITT CANCER CENTER AND RESEARCH INSTITUTE, INC., priority 2012, dated 2021).
